Laboratory results as given in ChEMBL document CHEMBL4834480, “Discovery of 3,5-Dimethyl-4-Sulfonyl-1H-Pyrrole-Based Myeloid Cell Leukemia 1 Inhibitors with High Affinity, Selectivity, and Oral Bioavailability” (J Med Chem, 2021).
Activity calls are given as the source filed them. No cut-off for these calls is given here.

Columns and labels:
[1] = target: Induced myeloid leukemia cell differentiation protein Mcl-1 (Homo sapiens, UniProt Q07820); assay: Inhibition of FITC-labeled Bak BH3 peptide binding to GST-tagged MCL1 (171 to 327 residues) (unknown origin) expressed in Escherichia coli BL21 (DE3) incubated for 30 mins fluorescence polarization-based competitive binding assay
[2] = target: Apoptosis regulator Bcl-2 (Homo sapiens, UniProt P10415); assay: Inhibition of FITC-labeled Bak BH3 peptide binding to GST-tagged BCL2 (1 to 205 residues) (unknown origin) expressed in Escherichia coli BL21 (DE3) at 10 uM incubated for 30 mins fluorescence polarization-based competitive binding assay relative to control
[3] = target: T1, Bcl-2-related protein A1 (Homo sapiens) (UniProt Q16548); assay: Inhibition of FITC-labeled Bak BH3 peptide binding to GST-tagged BFL1 (1 to 151 residues) (unknown origin) expressed in Escherichia coli BL21 (DE3) at 10 uM incubated for 30 mins fluorescence polarization-based competitive binding assay relative to control
T1 sequence (whole entry): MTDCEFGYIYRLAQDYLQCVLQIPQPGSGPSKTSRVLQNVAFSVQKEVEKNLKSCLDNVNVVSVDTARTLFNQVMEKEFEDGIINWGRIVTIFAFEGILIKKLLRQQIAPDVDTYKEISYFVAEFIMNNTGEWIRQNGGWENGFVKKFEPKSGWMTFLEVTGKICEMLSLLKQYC

[4] = target: Bcl-2-like protein 1 (Homo sapiens, UniProt Q07817); assay: Inhibition of BCL-XL(unknown origin) at 10 uM incubated for 120 mins by TR-FRET assay relative to control
[5] = tested on: NCI-H23; assay: Antiproliferative activity against human NCI-H23 cells assessed as decrease in cell viability measured after 72 hrs by MTT assay; type: functional, cell-based; conditions: NCI-H23, 72 h
[6] = tested on: MV4-11; assay: Antiproliferative activity against human MV4-11 cells assessed as decrease in cell viability measured after 72 hrs by MTT assay; type: functional, cell-based; conditions: MV4-11, 72 h
[7] = tested on: SK-BR-3; assay: Antiproliferative activity against human SK-BR-3 cells assessed as decrease in cell viability measured after 72 hrs by MTT assay; type: functional, cell-based; conditions: SK-BR-3, 72 h
[8] = tested on: K562; assay: Antiproliferative activity against human K562 cells assessed as decrease in cell viability measured after 72 hrs by MTT assay; type: functional, cell-based; conditions: K562, 72 h
[9] = tested on: NCI-H929; assay: Antiproliferative activity against human NCI-H929 cells assessed as decrease in cell viability measured after 72 hrs by MTT assay; type: functional, cell-based; conditions: NCI-H929, 72 h
[10] = tested on: MV4-11; assay: Induction of apoptosis in human MV4-11 cells xenografted in BALB/c nude mouse assessed as induction of PARP cleavage at 10 mg/kg, ip administered every two days for 14 days by Western blot analysis; type: functional, organism-based; conditions: time 14.0 day
[11] = tested on: MV4-11; assay: Antitumor activity against human MV4-11 cells xenografted in BALB/c nude mouse assessed as tumor growth inhibition by measuring T/C ratio at 10 mg/kg, ip administered every two days for 14 days relative to control; type: functional; conditions: time 14 day

Induced myeloid leukemia cell differentiation protein Mcl-1, sequence (Q07820 whole entry, the tested form may be a part): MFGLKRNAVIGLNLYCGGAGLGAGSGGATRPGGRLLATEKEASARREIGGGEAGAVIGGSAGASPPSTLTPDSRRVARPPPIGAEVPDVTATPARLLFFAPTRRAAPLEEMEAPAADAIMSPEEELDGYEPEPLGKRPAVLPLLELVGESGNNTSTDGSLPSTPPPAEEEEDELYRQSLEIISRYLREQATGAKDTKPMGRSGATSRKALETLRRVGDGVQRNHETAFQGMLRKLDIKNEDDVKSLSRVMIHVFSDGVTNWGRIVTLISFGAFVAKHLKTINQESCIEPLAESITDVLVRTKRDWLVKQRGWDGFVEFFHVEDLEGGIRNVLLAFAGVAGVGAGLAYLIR
Bcl-2-like protein 1, sequence (Q07817 whole entry): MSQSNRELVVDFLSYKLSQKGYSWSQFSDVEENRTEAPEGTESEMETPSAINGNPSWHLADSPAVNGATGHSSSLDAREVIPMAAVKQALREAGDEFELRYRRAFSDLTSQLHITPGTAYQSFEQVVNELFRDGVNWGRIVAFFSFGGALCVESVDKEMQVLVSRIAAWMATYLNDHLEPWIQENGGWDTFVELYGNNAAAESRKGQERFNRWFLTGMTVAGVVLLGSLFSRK
Apoptosis regulator Bcl-2, sequence (P10415 whole entry, the tested form may be a part): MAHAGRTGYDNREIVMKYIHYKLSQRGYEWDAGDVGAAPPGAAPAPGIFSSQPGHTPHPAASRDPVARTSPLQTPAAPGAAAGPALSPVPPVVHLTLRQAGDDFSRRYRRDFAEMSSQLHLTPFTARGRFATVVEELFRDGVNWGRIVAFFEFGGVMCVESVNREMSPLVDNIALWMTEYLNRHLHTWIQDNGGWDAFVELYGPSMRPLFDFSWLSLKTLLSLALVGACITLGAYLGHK

SMILES	Ki [1]	further results
CC(=O)c1ccccc1S(=O)(=O)c1c(C)c(C(=O)O)n(CCCOc2cc(C)c(Cl)c(C)c2)c1C	500 nM	
COc1ccccc1S(=O)(=O)c1c(C)c(C(=O)O)n(CCCOc2cc(C)c(Cl)c(C)c2)c1C	430 nM	
Cc1cc(OCCCn2c(C)c(S(=O)(=O)Cc3ccccc3)c(C)c2C(=O)O)cc(C)c1Cl	2000 nM	
Cc1cc(OCCCn2c(C)c(S(=O)(=O)c3ccc(N)cc3)c(C)c2C(=O)O)cc(C)c1Cl	340 nM	
Cc1cc(OCCCn2c(C)c(S(=O)(=O)c3ccc(C(=O)c4ccccc4)cc3)c(C)c2C(=O)O)cc(C)c1Cl	380 nM	
Cc1cc(OCCCn2c(C)c(S(=O)(=O)c3ccc(C(=O)O)cc3)c(C)c2C(=O)O)cc(C)c1Cl	420 nM	
CCc1c(S(=O)(=O)c2ccc(C)cc2)c(C)c(C(=O)O)n1CCCOc1cc(C)c(Cl)c(C)c1	2490 nM	
Cc1c2c(nn1C)CSCc1cc(n(C)n1)CSc1cc(c3ccccc3c1)OCCCc1c(C(=O)O)n(C)c3c-2c(Cl)ccc13 [AZD-5991]		Activity [10]: Active; T/C [11]: 5.18%; IC50 [5]: 0.19 µM; IC50 [6]: 24 nM; IC50 [7]: 30 µM; IC50 [8]: 29.6 µM; IC50 [9]: 36 nM
Cc1ccc(Sc2c(C)c(C(=O)O)n(CCCOc3cc(C)c(Cl)c(C)c3)c2C)cc1	680 nM	
Cc1ccc(CNc2cc(C(=O)O)n(CCCOc3cc(C)c(Cl)c(C)c3)c2)cc1	> 10000 nM	
Cc1cc(OCCCn2c(C)c(S(=O)(=O)c3ccccn3)c(C)c2C(=O)O)cc(C)c1Cl	1900 nM	
Cc1cc(OCCCn2c(C)c(S(=O)(=O)c3c(C)cccc3C)c(C)c2C(=O)O)cc(C)c1Cl	> 10000 nM	
Cc1cc(OCCCn2c(C)c(S(=O)(=O)C3CCCCC3)c(C)c2C(=O)O)cc(C)c1Cl	> 10000 nM	
Cc1cc(OCCCn2c(C)c(S(=O)(=O)C3CCCC3)c(C)c2C(=O)O)cc(C)c1Cl	> 10000 nM	
Cc1ccc(S(=O)(=O)c2cn(CCCOc3cc(C)c(Cl)c(C)c3)c(C(=O)O)c2C)cc1	810 nM	
Cc1cc(OCCCn2c(C)c(S(=O)(=O)c3ccc([N+](=O)[O-])cc3)c(C)c2C(=O)O)cc(C)c1Cl	420 nM	

Continued by falling Ki [1], values first:

Ki [1]	SMILES	further results
260 nM	Cc1cc(OCCCn2c(C)c(S(=O)(=O)c3ccc(F)cc3)c(C)c2C(=O)O)cc(C)c1Cl	
200 nM	COc1cccc(S(=O)(=O)c2c(C)c(C(=O)O)n(CCCOc3cc(C)c(Cl)c(C)c3)c2C)c1	
190 nM	Cc1cc(OCCCn2c(C)c(S(=O)(=O)c3ccccc3)c(C)c2C(=O)O)cc(C)c1Cl	
180 nM	Cc1cc(OCCCn2c(C)c(S(=O)(=O)c3ccc(Cl)cc3)c(C)c2C(=O)O)cc(C)c1Cl	
120 nM	CCc1c(S(=O)(=O)c2ccc(C)cc2)c(C)n(CCCOc2cc(C)c(Cl)c(C)c2)c1C(=O)O	
80 nM	Cc1cc(OCCCn2c(C)c(S(=O)(=O)c3cccs3)c(C)c2C(=O)O)cc(C)c1Cl	inhibition [2]: 7.54%; inhibition [4]: 37%; IC50 [5]: 3.1 µM; IC50 [6]: 2300 nM; IC50 [7]: 5.13 µM; IC50 [8]: 11.3 µM; IC50 [9]: 700 nM
60 nM	Cc1cc(OCCCn2c(C)c(S(=O)(=O)c3cccc(Br)c3)c(C)c2C(=O)O)cc(C)c1Cl	
40 nM	Cc1cc(OCCCn2c(C)c(S(=O)(=O)c3ccc(Br)cc3)c(C)c2C(=O)O)cc(C)c1Cl	inhibition [2]: 11.6%; inhibition [3]: 4.14%; inhibition [4]: 13%; IC50 [5]: 3.84 µM; IC50 [6]: 1700 nM; IC50 [7]: 5.6 µM; IC50 [8]: > 30 µM; IC50 [9]: 480 nM
